According to paper PMC4234442 (Journal of Medicinal Chemistry, 2014):
Counter-ions that a name gives are not always drawn. Marks after values point to notes of the source that are not given here. Blank lines part the entries; values can stand above or below the compound they belong to. Ends that are not written are not given here.

Assays:
NPFF2-R [1] = molecular target: T1, NPFF2-R (Homo sapiens, UniProt Q9Y5X5); assay type: binding
NPFF1-R [2] = molecular target: T2, NPFF1-R (Homo sapiens, UniProt Q9GZQ6); assay type: binding
T2 sequence (Q9GZQ6 whole entry): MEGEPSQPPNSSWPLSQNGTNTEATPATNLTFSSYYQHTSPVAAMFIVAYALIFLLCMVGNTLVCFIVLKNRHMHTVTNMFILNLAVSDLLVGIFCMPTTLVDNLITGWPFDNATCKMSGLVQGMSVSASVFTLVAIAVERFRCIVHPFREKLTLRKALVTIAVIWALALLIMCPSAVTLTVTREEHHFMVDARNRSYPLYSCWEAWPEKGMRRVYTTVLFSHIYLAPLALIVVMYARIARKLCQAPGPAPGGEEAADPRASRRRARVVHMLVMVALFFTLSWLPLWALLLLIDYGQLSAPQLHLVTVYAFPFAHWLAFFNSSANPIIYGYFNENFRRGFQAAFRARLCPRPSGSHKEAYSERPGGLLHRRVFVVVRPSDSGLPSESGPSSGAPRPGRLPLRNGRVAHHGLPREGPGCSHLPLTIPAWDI

[3] = molecular target: membrane of rat spinal cord; conditions: read-out: Ki in the membrane of rat spinal cord; cited from earlier work
NPFF2-R [4] = molecular target: T1, NPFF2-R; assay type: cell-based
NPFF2-R [5] = molecular target: T1, NPFF2-R; conditions: cited from earlier work; for selectivity for the hNPFF2 subtype: radioligand competition binding assays
NPFF1-R [6] = molecular target: T2, NPFF1-R; assay type: cell-based
NPFF1-R [7] = molecular target: T2, NPFF1-R; conditions: read-out: hNPFF1-R Ki; radioligand displacement assays; cited from earlier work
NPFF1-R [8] = molecular target: T2, NPFF1-R; conditions: read-out: cAMP hNPFF1-R antagonist activity EC50; data taken from ref 15; cited from earlier work
NPFF2-R [9] = molecular target: T1, NPFF2-R; assay type: binding; remark: listed apart in the source
NPFF2-R [10] = molecular target: T1, NPFF2-R; experiment: [35S]GTPγS binding assay, membranes of NPFF2-R expressing CHO cells; assay type: biochemical; conditions: tested at 10 μM; % maximal activation
NPFF1-R [11] = molecular target: T2, NPFF1-R; experiment: [35S]GTPγS binding assay, membranes of NPFF1-R expressing CHO cells; assay type: biochemical; conditions: tested at 10 μM; % maximal activation

T1 sequence (Q9Y5X5 whole entry): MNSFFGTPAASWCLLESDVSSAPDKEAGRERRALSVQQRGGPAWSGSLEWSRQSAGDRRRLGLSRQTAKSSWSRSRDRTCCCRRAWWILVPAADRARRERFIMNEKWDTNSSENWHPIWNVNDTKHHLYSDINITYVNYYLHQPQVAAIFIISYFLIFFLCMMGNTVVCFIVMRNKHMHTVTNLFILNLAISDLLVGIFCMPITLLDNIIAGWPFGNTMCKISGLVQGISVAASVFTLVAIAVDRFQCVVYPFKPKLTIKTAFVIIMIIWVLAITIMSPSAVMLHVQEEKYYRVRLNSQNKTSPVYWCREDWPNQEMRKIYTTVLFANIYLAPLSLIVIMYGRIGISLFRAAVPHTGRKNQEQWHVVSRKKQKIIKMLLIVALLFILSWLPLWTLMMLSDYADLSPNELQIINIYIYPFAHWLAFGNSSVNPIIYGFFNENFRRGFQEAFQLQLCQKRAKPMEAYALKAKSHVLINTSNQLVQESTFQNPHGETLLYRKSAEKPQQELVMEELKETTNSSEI

Compound: N=C(N)NCC(=O)NCC1(Nc2ccccc2)CCN(CCc2ccccc2)CC1 [49c, 2-Guanidino-N-((1-phenethyl-4-(phenylamino)piperidin-4-yl)methyl)acetamide Tritriflate]
fold gain of affinity at NPFF2-R compared with lead 21 (NPFF2-R [1]): 1.2–3.1 fold

Compound: N=C(N)NCC(=O)NCC1(Nc2ccccc2)CCN(Cc2cccc3ccccc23)CC1 [49d, 2-Guanidino-N-((1-(naphthalen-1-ylmethyl)-4-(phenylamino)piperidin-4-yl)methyl)acetamide Tritriflate]
fold gain of affinity at NPFF2-R compared with lead 21 (NPFF2-R [1]): 1.2–3.1 fold

Compound: N=C(N)NCC(=O)NCC1(Nc2ccccc2)CCN(CC2CCCCC2)CC1 [49b, N-((1-(Cyclohexylmethyl)-4-(phenylamino)piperidin-4-yl)methyl)-2-guanidinoacetamide Tritriflate]
fold loss of affinity at NPFF1-R relative to lead 21 (NPFF1-R [2]): 5 fold
fold gain of affinity at NPFF2-R compared with lead 21 (NPFF2-R [1]): 1.2–3.1 fold

Compound: FLFQPQRFa [NPFF]
Ki [3]: 0.21 nM

Highest concentration showing no agonist activity when tested alone, hNPFF2-R (NPFF2-R [4]): 1K ^f
fold gain of affinity at NPFF2-R compared with lead 21 (NPFF2-R [1]): 5 fold
Compound: N=C(N)NCC(=O)NCC1(Cc2ccccc2)CCN(Cc2ccccc2)CC1 [compound 42, N-((1,4-Dibenzylpiperidin-4-yl)methyl)-2-guanidinoacetamide Ditriflate]

Compound: n-adamantanecarbonyl-Arg-Phe-NH2 [RF9]
Ki (NPFF2-R [5]; read-out: hNPFF2-R Ki, radioligand displacement assays): 75 ± 9 nM
cAMP hNPFF1-R Emax, % (NPFF1-R [6]): 79 ± 5 ^c %
Ki (NPFF1-R [7]): 58 ± 5 nM
EC50 (NPFF1-R [8]): 4700 ± 1200 nM

Compound: N=C(N)NCC(=O)NCC1(Nc2ccccc2)CCN(Cc2ccc(Br)cc2)CC1 [49f, N-((1-(4-Bromobenzyl)-4-(phenylamino)piperidin-4-yl)methyl)-2-guanidinoacetamide Tritriflate]
fold gain of affinity at NPFF1-R compared with lead 21 (NPFF1-R [2]): 2.3–2.8 fold

Compound: AGEGLSSPFWSLAAPQRFa [hNPAF]
selectivity for the hNPFF2 subtype (NPFF2-R [5]): 10.1 fold

Compound: N=C(N)NCC(=O)NCC1(Nc2ccccc2)CCN(Cc2ccc3ccccc3c2)CC1 [49e, 2-Guanidino-N-((1-(naphthalen-2-ylmethyl)-4-(phenylamino)piperidin-4-yl)methyl)acetamide Tritriflate]
fold gain of affinity at NPFF1-R compared with lead 21 (NPFF1-R [2]): 2.3–2.8 fold

Compound: N=C(N)NCCNC(=O)C1(Nc2ccccc2)CCN(Cc2ccccc2)CC1 [compound 46, 1-Benzyl-N-(2-guanidinoethyl)-4-(phenylamino)piperidine-4-carboxamide Tritriflate]
fold gain of affinity at NPFF1-R compared with lead 21 (NPFF1-R [2]): 4 fold

fold loss of affinity at NPFF2-R relative to 53a (NPFF2-R [1]): 6.8 fold
ratio, preference for NPFF2 (NPFF2-R [1]): 1.5-fold (NPFF2)
Compound: N=C(N)NCC(=O)NCC1(Cc2ccc3ccccc3c2)CCN(Cc2ccccc2)CC1 [53c, N-((1-Benzyl-4-(naphthalen-2-ylmethyl)piperidin-4-yl)methyl)-2-guanidinoacetamide Ditriflate]

Activity alone at NPFF2-R (NPFF2-R [4]): low activity
Activity alone at NPFF1-R (NPFF1-R [6]): low activity
fold gain of affinity at NPFF2-R compared with lead 21 (NPFF2-R [1]): 14 fold
fold increase in affinity at NPFF2-R relative to lead 42 (NPFF2-R [1]): 2.8 fold
Compound: N=C(N)NCC(=O)NCC1(Cc2cccc3ccccc23)CCN(Cc2ccccc2)CC1 [53a, N-((1-Benzyl-4-(naphthalen-1-ylmethyl)piperidin-4-yl)methyl)-2-guanidinoacetamide Tritriflate]

ratio, preference for NPFF1 (NPFF1-R [2]): 3-fold (NPFF1)
fold loss of affinity at NPFF2-R relative to 53a (NPFF2-R [1]): 30 fold
Compound: N=C(N)NCC(=O)NCC1(Cc2ccc(-c3ccccc3)cc2)CCN(Cc2ccccc2)CC1 [53d, N-((1-Benzyl-4-(biphenyl-4-ylmethyl)piperidin-4-yl)methyl)-2-guanidinoacetamide Ditriflate]

Compound: SLNFEELKDWGPKNVIKMSTPAVNKMPHSFANLPLRFa [hNPSF]
selectivity for the hNPFF2 subtype (NPFF2-R [5]): 1.2 fold

ratio, preference for NPFF1 (NPFF1-R [2]): 3-fold (NPFF1)
fold loss of affinity at NPFF2-R relative to 42 (NPFF2-R [1]): 5.5 fold
Compound: N=C(N)NCC(=O)NCC1(CCc2ccccc2)CCN(Cc2ccccc2)CC1 [compound 43, N-((1-Benzyl-4-phenethylpiperidin-4-yl)methyl)-2-guanidinoacetamide Ditriflate]

Compound: N=C(N)NCC(=O)NCC1(Nc2ccc(Cl)c(Cl)c2)CCN(Cc2ccccc2)CC1 [30d, N-((1-Benzyl-4-(3,4-dichlorophenylamino)piperidin-4-yl)methyl)-2-guanidinoacetamide Tritriflate]
ratio, preference for NPFF1 (NPFF1-R [2]): 2.1-fold (NPFF1)

Compound: N=C(N)NCC(=O)NCC1(Nc2ccccc2)CCN(Cc2ccccc2)CC1 [compound 21, N-((1-Benzyl-4-(phenylamino)piperidin-4-yl)methyl)-2-guanidinoacetamide tritriflate]
% inhibition of forskolin-stimulated cAMP accumulation (cyclase) at NPFF2-R (NPFF2-R [4]): 20–25 ^e %
Agonist activity alone at NPFF2-R (NPFF2-R [4]): weak partial agonist activity
Agonist activity alone at NPFF1-R (NPFF1-R [6]): weak partial agonist activity
fold increase in affinity at NPFF1-R compared with lead 7b (NPFF1-R [2]): 1.5 fold
fold increase in affinity at NPFF2-R compared with lead 7b (NPFF2-R [1]): 2.6 fold

fold loss of affinity at NPFF2-R relative to 7b (NPFF2-R [9]): 7 fold
Compound: N=C(N)NCCC[C@H](N)C(=O)NCC1CCN(Cc2ccccc2)CC1 [compound 15, 2-Amino-N-((1-benzylpiperidin-4-yl)methyl)-5-guanidinopentanamide Hydrochloride]

Compound: SQAFLFQPQRFa (SQAFLFQPQRF-NH2; UniProt O15130 66-76, looked up) [hNPFF]
selectivity for the hNPFF2 subtype (NPFF2-R [5]): 10.7 fold

% stimulation (increase) of [35S]GTPγS binding at NPFF2-R (NPFF2-R [10]): 184 ^d %
% stimulation (increase) of [35S]GTPγS binding at NPFF1-R (NPFF1-R [11]): 36 ^d %
Compound: N=C(N)NCCC[C@H](N)C(=O)NCC1(Nc2ccccc2)CCN(Cc2ccccc2)CC1 [7b, 2-Amino-N-((1-benzyl-4-(phenylamino)piperidin-4-yl)methyl)-5-guanidinopentanamide Hydrochloride]

Compound: COc1cccc(NC2(CNC(=O)CNC(=N)N)CCN(Cc3ccccc3)CC2)c1 [30c, N-((1-Benzyl-4-(3-methoxyphenylamino)piperidin-4-yl)methyl)-2-guanidinoacetamide Tritriflate]
ratio, preference for NPFF1 (NPFF1-R [2]): 4.4-fold (NPFF1)

fold loss of affinity at NPFF1-R relative to lead 21 (NPFF1-R [2]): 1.6 fold
ratio, preference for NPFF1 (NPFF1-R [2]): 6.9-fold (NPFF1)
fold loss of affinity at NPFF2-R relative to lead 21 (NPFF2-R [1]): 8.7 fold
Compound: N=C(N)NCC(=O)NCC1(c2ccccc2)CCN(Cc2ccccc2)CC1 [compound 34, N-((1-Benzyl-4-phenylpiperidin-4-yl)methyl)-2-guanidinoacetamide Ditriflate]

fold loss of affinity at NPFF2-R relative to 53a (NPFF2-R [1]): 2.7 fold
Compound: N=C(N)NCC(=O)NCC1(Cc2ccc(Cl)c(Cl)c2)CCN(Cc2ccccc2)CC1 [53b, N-((1-Benzyl-4-(3,4-dichlorobenzyl)piperidin-4-yl)methyl)-2-guanidinoacetamide Ditriflate]

Compound: N=C(N)NCC(=O)NCC1(Nc2cccc3ccccc23)CCN(Cc2ccccc2)CC1 [30a, N-((1-Benzyl-4-(naphthalen-1-ylamino)piperidin-4-yl)methyl)-2-guanidinoacetamide Tritriflate]
Highest concentration showing no agonist activity when tested alone, hNPFF1-R (NPFF1-R [6]): >10K ^f
ratio, preference for NPFF1 (NPFF1-R [2]): 3.3-fold (NPFF1)

Compound: COc1cc(NC2(CNC(=O)CNC(=N)N)CCN(Cc3ccccc3)CC2)cc(OC)c1 [30b, N-((1-Benzyl-4-(3,5-dimethoxyphenylamino)piperidin-4-yl)methyl)-2-guanidinoacetamide Tritriflate]
Highest concentration showing no agonist activity when tested alone, hNPFF1-R (NPFF1-R [6]): >10K ^f
ratio, preference for NPFF1 (NPFF1-R [2]): 8.7-fold (NPFF1)
